The supplement of paper PMC10307832

Legend:
Test in all cases: relative viability (nuclei count vs DMSO), 5 days (fraction); higher = more cells survive
[1] = compound: NCC(=O)Nc1ccc(-n2nc(C(F)(F)F)cc2-c2ccc3c(ccc4ccccc43)c2)cc1 + O=C(CCCCCCC(=O)Nc1ccccc1)NO [Vorinostat] (partner 1 µM)
Method in brief: (§1)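 Relative viability is defined as nuclei in treated wells over nuclei in vehicle wells. Duplicate plates were run and medians reported. Lung cancer cell lines in 1536-well plates were dosed by pin tool one day after seeding, with one drug or with a fixed anchor-drug dose plus five library-drug doses (not always all listed) in √10 steps, and nuclei were counted after 5 days.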

[2] = compound: NCC(=O)Nc1ccc(-n2nc(C(F)(F)F)cc2-c2ccc3c(ccc4ccccc43)c2)cc1 + O=C(c1cc(Cc2n[nH]c(=O)c3ccccc23)ccc1F)N1CCN(C(=O)C2CC2)CC1 [Olaparib] (partner 8 µM)
Method in brief: as §1

[3] = compound: C1CSC2=C(C(=O)N1)SC3=C2C=C(C=C3)O [kb NB 142-70] + O=C(CCCCCCC(=O)Nc1ccccc1)NO [Vorinostat] (partner 1 µM)
Method in brief: as §1

[4] = compound: NCC(=O)Nc1ccc(-n2nc(C(F)(F)F)cc2-c2ccc3c(ccc4ccccc43)c2)cc1 + Nc1ncn([C@H]2C[C@H](O)[C@@H](CO)O2)c(=O)n1 [Decitabine] (partner 2 µM)
Method in brief: as §1

Cell Line	relative viability ([1]; first compound 0.02 µM)	relative viability ([1]; first compound 0.06325 µM)	relative viability ([1]; first compound 0.2 µM)	relative viability ([1]; first compound 0.6325 µM)	relative viability ([1]; first compound 2 µM)	relative viability ([2]; first compound 0.02 µM)	relative viability ([2]; first compound 0.06325 µM)	relative viability ([2]; first compound 0.2 µM)	relative viability ([2]; first compound 0.6325 µM)	relative viability ([2]; first compound 2 µM)	relative viability ([3]; first compound 0.1 µM)	relative viability ([3]; first compound 1 µM)	relative viability ([3]; first compound 3.162 µM)	relative viability ([4]; first compound 0.02 µM)	relative viability ([4]; first compound 0.06325 µM)	relative viability ([4]; first compound 0.2 µM)	relative viability ([4]; first compound 0.6325 µM)	relative viability ([4]; first compound 2 µM)
PC-3 [JPC-3]	0.902	0.854	0.778	1.03	0.822	1.19	1.2	1.22	1.08	1.18	0.814	0.846	0.458	0.818	0.854	0.768	0.863	0.777
EMC-BAC-2	0.454	0.511	0.569	0.514	0.488	0.433	0.514	0.539	0.483	0.5	0.556	0.472	0.16	1.02	0.998	1.05	0.948	0.944
LK-2	0.445	0.279	0.244	0.288	0.256	0.758	0.78	0.799	0.666	0.671	0.417	0.279	0.219	0.283	0.268	0.249	0.319	0.278
NCI-H2126	0.78	0.858	0.768	0.756	0.773	0.864	0.877	0.925	0.928	0.913	0.755	0.796	0.805	0.568	0.568	0.583	0.596	0.572
NCI-H3122	1.03	0.997	0.995	0.942	0.797	0.675	0.637	0.633	0.693	0.558	0.908	1.08	0.887	0.445	0.418	0.495	0.448	0.435
NCI-H1975	0.728	0.729	0.804	0.704	0.747	0.763	0.847	0.887	0.744	0.873	0.708	0.816	0.554	0.407	0.39	0.43	0.404	0.464
NCI-H1944	0.546	0.695	0.554	0.558	0.526	0.463	0.384	0.4	0.388	0.397	0.609	0.566	0.595	0.492	0.43	0.436	0.392	0.44
LU99A	0.415	0.588	0.519	0.56	0.535	0.284	0.289	0.261	0.263	0.322	0.486	0.443	0.33	0.817	0.987	0.838	0.843	0.91
SW 1573	0.647	0.749	0.831	0.703	0.661	0.554	0.506	0.531	0.479	0.404	0.655	0.426	0.327	0.496	0.524	0.524	0.518	0.436
NCI-H2347	0.604	0.688	0.685	0.611	0.673	0.572	0.611	0.648	0.63	0.521	0.629	0.641	0.599	0.661	0.599	0.74	0.615	0.599
NCI-H2009	0.698	0.741	0.792	0.805	0.766	0.681	0.72	0.75	0.657	0.679	0.724	0.95	0.688	0.337	0.457	0.409	0.349	0.408
HCC-15	0.878	0.94	1.04	0.861	0.841	0.718	0.743	0.798	0.681	0.711	0.812	0.816	0.801	0.623	0.659	0.677	0.67	0.654
HCC-44	1.17	1.19	1.03	1.05	1.12	1.05	0.994	0.953	0.941	0.956	1.09	1.14	1.21	0.885	0.956	0.933	0.905	0.927
COR-L23	0.466	0.46	0.576	0.449	0.372	0.368	0.368	0.352	0.393	0.366	0.515	0.428	0.214	0.437	0.434	0.475	0.413	0.309
HCC-78	0.398	0.481	0.472	0.466	0.454	0.9	0.837	1.02	0.868	0.814	0.407	0.602	0.483	0.788	0.763	0.698	0.675	0.658
NCI-H727	1.28	0.908	1.28	1.21	1.05	0.504	0.801	0.754	0.666	0.583	1.35	1.18	1.24	0.941	0.647	0.869	0.874	0.812
NCI-H2087	0.752	0.618	0.809	0.649	0.668	0.583	0.525	0.592	0.67	0.634	0.506	0.687	0.423	0.249	0.245	0.246	0.282	0.251
BEN	0.579	0.526	0.56	0.593	0.586	1	1.23	0.993	1.21	1.03	0.553	0.585	0.573	0.69	0.669	0.7	0.709	0.77

Cell Line	relative viability ([1]; first compound 0.02 µM)	relative viability ([1]; first compound 0.06325 µM)	relative viability ([1]; first compound 0.2 µM)	relative viability ([1]; first compound 0.6325 µM)	relative viability ([1]; first compound 2 µM)	relative viability ([2]; first compound 0.02 µM)	relative viability ([2]; first compound 0.06325 µM)	relative viability ([2]; first compound 0.2 µM)	relative viability ([2]; first compound 0.6325 µM)	relative viability ([2]; first compound 2 µM)	relative viability ([3]; first compound 0.1 µM)	relative viability ([3]; first compound 1 µM)	relative viability ([3]; first compound 3.162 µM)	relative viability ([4]; first compound 0.02 µM)	relative viability ([4]; first compound 0.06325 µM)	relative viability ([4]; first compound 0.2 µM)	relative viability ([4]; first compound 0.6325 µM)	relative viability ([4]; first compound 2 µM)
LCLC-103H	0.674	0.831	0.818	0.77	0.862	0.685	0.793	0.787	0.765	0.752	0.856	0.873	0.877	0.735	0.742	0.809	0.763	0.748
EKVX	0.726	0.83	0.751	0.724	0.731	0.973	0.966	0.882	0.935	1.13	0.677	0.481	0.814	0.365	0.368	0.369	0.393	0.361
LXF-289	0.737	0.91	0.777	0.731	0.787	1.05	1.11	1.03	1.04	1.07	0.713	0.711	0.51	0.376	0.388	0.371	0.416	0.333
ABC-1	0.917	1.15	–	1.08	1.39	0.594	0.671	–	0.921	0.78	1.13	0.975	0.453	0.917	1.02	–	0.954	1.13
NCI-H650	0.469	0.424	1.29	0.369	0.361	0.395	0.415	0.421	0.399	0.396	0.514	0.585	0.363	0.34	0.295	0.443	0.315	0.367
NCI-H1650	0.71	0.676	0.556	0.692	0.559	0.802	0.89	0.875	0.827	0.774	0.656	0.569	0.425	0.381	0.459	0.431	0.355	0.508
NCI-H2085	0.703	0.824	0.728	0.877	0.849	0.853	0.802	0.801	0.829	0.812	0.772	0.857	0.483	0.577	0.519	0.592	0.556	0.534
NCI-H1793	0.758	0.874	0.699	0.793	0.86	1.05	0.957	0.921	0.852	1.02	0.807	1.02	0.654	0.518	0.459	0.549	0.494	0.487
LC-2-ad	0.68	0.757	0.769	0.673	0.76	0.676	0.801	0.728	0.719	0.698	0.726	0.698	0.71	0.808	0.779	0.831	0.789	0.774
COR-L 105	0.873	0.861	0.724	0.781	1.04	0.696	0.772	0.75	0.766	0.638	0.812	0.831	0.776	0.726	0.588	0.698	0.635	0.653
NCI-H1355	0.636	0.709	0.676	0.655	0.653	0.722	0.785	0.729	0.757	0.738	0.605	0.643	0.657	0.371	0.362	0.403	0.408	0.347
H3255	0.766	0.84	0.872	0.809	0.722	0.593	0.593	0.577	0.607	0.622	0.973	0.864	0.842	0.669	0.479	0.643	0.715	0.667
NCI-H1993	0.798	0.952	0.656	0.969	0.862	1.01	1.01	1.06	0.915	1.08	0.921	0.844	0.727	0.558	0.634	0.663	0.611	0.64
NCI-H1734	0.773	0.848	0.827	0.773	0.817	0.629	0.603	0.678	0.569	0.575	0.829	0.724	0.538	0.545	0.497	0.488	0.485	0.534
HOP-62	0.536	0.534	0.668	0.501	0.7	0.284	0.361	0.381	0.408	0.431	0.69	0.713	0.579	0.214	0.228	0.225	0.206	0.192
LOU-NH91	0.895	0.977	0.917	0.872	1.01	0.967	0.959	0.933	0.922	0.995	0.915	0.913	0.601	0.836	0.829	0.816	0.849	0.84
ChaGo-K-1	0.667	0.794	0.725	0.725	0.76	0.443	0.488	0.388	0.443	0.405	0.815	0.813	0.7	0.55	0.526	0.506	0.522	0.549
PC-14	0.685	0.62	–	0.659	0.657	0.308	0.45	0.317	0.388	0.306	0.857	0.755	0.633	0.259	0.236	0.209	0.258	0.23
